Literature values in patent publication US20250074868A1, “POLYHYDROXYLATED PHOTOINITIATORS” (Arkema France, priority 2021, published 2025).

For CC(C)(O)C(=O)c1ccc(OCCO)cc1 [SpeedCure 2959], the water solubility is listed as 0.5 wt %.
